Experimental data as given in paper PMC8119466, “A screen of FDA-approved drugs identifies inhibitors of protein tyrosine phosphatase 4A3 (PTP4A3 or PRL-3)” (Scientific Reports, 2021).
Structures can show the parent of a compound that is named as a salt.

Columns and labels:
[1] = molecular target: T1, recombinant PRL-2 (Homo sapiens, UniProt Q12974); test: In vitro phosphatase assay (DiFMUP hydrolysis), PRL-2; assay type: biochemical; conditions: for % Phosphatase Activity (compared to DMSO) PRL-2: FDA-approved drug screen;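 for all read-outs here: PRL-2 activity read as DiFMUP hydrolysis after 20 min at room temperature with drug, enzyme first pre-reduced at 4 °C for 20 min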
T1 construct: 6xHis (N, cleaved yes); made in house; host or cells: E. coli One Shot BL21 Star
T1 sequence (Q12974 1-167): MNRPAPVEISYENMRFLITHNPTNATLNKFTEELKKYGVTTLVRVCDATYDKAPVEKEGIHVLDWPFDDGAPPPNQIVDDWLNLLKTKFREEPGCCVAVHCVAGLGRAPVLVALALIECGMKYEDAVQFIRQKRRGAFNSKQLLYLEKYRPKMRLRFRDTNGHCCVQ

[2] = molecular target: T2, recombinant PRL-3 (Homo sapiens, UniProt O75365); test: In vitro phosphatase assay (DiFMUP hydrolysis), PRL-3; assay type: biochemical; conditions: for % Phosphatase Activity (compared to DMSO) PRL-3: FDA-approved drug screen
T2 construct: 6xHis (N, cleaved yes); made in house; host or cells: E. coli One Shot BL21 Star
T2 sequence (O75365 whole entry): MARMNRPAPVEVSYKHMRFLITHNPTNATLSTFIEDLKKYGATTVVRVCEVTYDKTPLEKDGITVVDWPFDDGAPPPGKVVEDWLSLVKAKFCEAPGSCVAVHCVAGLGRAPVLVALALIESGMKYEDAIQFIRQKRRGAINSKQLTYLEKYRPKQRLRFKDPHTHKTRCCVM

CC1(C)CCC(CN2CCN(c3ccc(C(=O)NS(=O)(=O)c4ccc(NCC5CCOCC5)c([N+](=O)[O-])c4)c(Oc4cnc5[nH]ccc5c4)c3)CC2)=C(c2ccc(Cl)cc2)C1 [ABT-199, reference compound]
selectivity in inhibiting PRL-2 over other PRLs ([1]; drug 40 µM): demonstrated selectivity in inhibiting PRL-2

CCN(CC)CCOC(=O)C(c1ccccc1)c1ccccc1 [Adiphenine HCl]
% Phosphatase Activity (compared to DMSO) PRL-2 [1]: 101%
% Phosphatase Activity (compared to DMSO) PRL-3 [2]: 82%

CN(C)C/C=C/C(=O)Nc1cc2c(Nc3ccc(F)c(Cl)c3)ncnc2cc1O[C@H]1CCOC1 [Afatinib (BIBW2992)]
% Phosphatase Activity (compared to DMSO) PRL-2 [1]: 106%
% Phosphatase Activity (compared to DMSO) PRL-3 [2]: 85%

CC1(C)S[C@@H]2[C@H](NC(=O)[C@H](N)c3ccc(O)cc3)C(=O)N2[C@H]1C(=O)O [Amoxicillin]
% Phosphatase Activity (compared to DMSO) PRL-2 [1]: 150%
% Phosphatase Activity (compared to DMSO) PRL-3 [2]: 106%

Cc1c(-c2ccc(O)cc2)n(Cc2ccc(OCCN3CCCCCC3)cc2)c2ccc(O)cc12 [Bazedoxifene Acetate]
% Phosphatase Activity (compared to DMSO) PRL-2 [1]: 106%

CCC1(C)CC(=O)NC(=O)C1 [Bemegride]
% Phosphatase Activity (compared to DMSO) PRL-2 [1]: 97%
% Phosphatase Activity (compared to DMSO) PRL-3 [2]: 81%

O=C(O)c1ccccc1 [Benzoic Acid]
% Phosphatase Activity (compared to DMSO) PRL-2 [1]: 101%
% Phosphatase Activity (compared to DMSO) PRL-3 [2]: 76%

O=C(O)CCCN1CCC(O[C@@H](c2ccc(Cl)cc2)c2ccccn2)CC1.O=S(=O)(O)c1ccccc1 [Bepotastine Besilate]
% Phosphatase Activity (compared to DMSO) PRL-2 [1]: 113%
% Phosphatase Activity (compared to DMSO) PRL-3 [2]: 98%

COc1cc2c(cc1OC)[C@@]13CCN4CC5=CCO[C@H]6CC(=O)N2[C@H]1[C@H]6[C@H]5C[C@H]43 [Brucine]
% Phosphatase Activity (compared to DMSO) PRL-2 [1]: 86%
% Phosphatase Activity (compared to DMSO) PRL-3 [2]: 83%

COc1cc(OC)c(C(=O)CCCN2CCCC2)c(OC)c1.Cl [Buflomedil HCl]
% Phosphatase Activity (compared to DMSO) PRL-2 [1]: 118%
% Phosphatase Activity (compared to DMSO) PRL-3 [2]: 87%

COc1cc2nccc(Oc3ccc(NC(=O)C4(C(=O)Nc5ccc(F)cc5)CC4)cc3)c2cc1OC [Cabozantinib (XL184, BMS-907351)]
% Phosphatase Activity (compared to DMSO) PRL-2 [1]: 96%
% Phosphatase Activity (compared to DMSO) PRL-3 [2]: 75%

COc1cc2nccc(Oc3ccc(NC(=O)C4(C(=O)Nc5ccc(F)cc5)CC4)cc3)c2cc1OC.O=C(O)C[C@H](O)C(=O)O [Cabozantinib malate (XL184)]
% Phosphatase Activity (compared to DMSO) PRL-2 [1]: 115%
% Phosphatase Activity (compared to DMSO) PRL-3 [2]: 96%

Cc1ccc([C@@H]2O[C@H](CO)[C@@H](O)[C@H](O)[C@H]2O)cc1Cc1ccc(-c2ccc(F)cc2)s1 [Canagliflozin]
% Phosphatase Activity (compared to DMSO) PRL-2 [1]: 106%
% Phosphatase Activity (compared to DMSO) PRL-3 [2]: 90%

CC1(C)S[C@@H]2[C@H](NC(=O)C(C(=O)O)c3ccccc3)C(=O)N2[C@H]1C(=O)O (some centres unmarked) [Carbenicillin disodium]
% Phosphatase Activity (compared to DMSO) PRL-2 [1]: 101%
% Phosphatase Activity (compared to DMSO) PRL-3 [2]: 87%

CN(C)CCC(c1ccc(Cl)cc1)c1ccccn1 (centres unmarked) [Chlorpheniramine Maleate]
% Phosphatase Activity (compared to DMSO) PRL-2 [1]: 103%
% Phosphatase Activity (compared to DMSO) PRL-3 [2]: 104%

CN(C)CCCN1c2ccccc2Sc2ccc(Cl)cc21 [Chlorpromazine HCl]
% Phosphatase Activity (compared to DMSO) PRL-2 [1]: 109%
% Phosphatase Activity (compared to DMSO) PRL-3 [2]: 81%

Cc1cc(C2CCCCC2)n(O)c(=O)c1 [Ciclopirox]
% Phosphatase Activity (compared to DMSO) PRL-2 [1]: 111%
% Phosphatase Activity (compared to DMSO) PRL-3 [2]: 76%

COc1ccc([C@]2(C#N)CC[C@@H](C(=O)O)CC2)cc1OC1CCCC1 [Cilomilast]
% Phosphatase Activity (compared to DMSO) PRL-2 [1]: 99%
% Phosphatase Activity (compared to DMSO) PRL-3 [2]: 88%

C[C@@H](NCCCc1cccc(C(F)(F)F)c1)c1cccc2ccccc12 [Cinacalcet HCl]
% Phosphatase Activity (compared to DMSO) PRL-2 [1]: 114%
% Phosphatase Activity (compared to DMSO) PRL-3 [2]: 81%

CC[C@H]1OC(=O)[C@H](C)[C@@H](O[C@H]2C[C@@](C)(OC)[C@@H](O)[C@H](C)O2)[C@H](C)[C@@H](O[C@@H]2O[C@H](C)C[C@H](N(C)C)[C@H]2O)[C@](C)(OC)C[C@@H](C)C(=O)[C@H](C)[C@@H](O)[C@]1(C)O [Clarithromycin]
% Phosphatase Activity (compared to DMSO) PRL-2 [1]: 111%
% Phosphatase Activity (compared to DMSO) PRL-3 [2]: 86%

Clc1ccccc1C(c1ccccc1)(c1ccccc1)n1ccnc1 [Clotrimazole]
% Phosphatase Activity (compared to DMSO) PRL-2 [1]: 108%
% Phosphatase Activity (compared to DMSO) PRL-3 [2]: 88%

C[C@@H](Oc1cc(-c2cnn(C3CCNCC3)c2)cnc1N)c1c(Cl)ccc(F)c1Cl [Crizotinib (PF-02341066)]
% Phosphatase Activity (compared to DMSO) PRL-2 [1]: 119%
% Phosphatase Activity (compared to DMSO) PRL-3 [2]: 81%

CN1CCC(=C2c3ccccc3C=Cc3ccccc32)CC1 [Cyproheptadine HCl]
% Phosphatase Activity (compared to DMSO) PRL-2 [1]: 112%
% Phosphatase Activity (compared to DMSO) PRL-3 [2]: 93%

N[C@@H]1CON=C1O [D-Cycloserine]
% Phosphatase Activity (compared to DMSO) PRL-2 [1]: 101%
% Phosphatase Activity (compared to DMSO) PRL-3 [2]: 95%

C[N+](C)(C)CCCCCCCCCC[N+](C)(C)C [Decamethonium Bromide]
% Phosphatase Activity (compared to DMSO) PRL-2 [1]: 118%
% Phosphatase Activity (compared to DMSO) PRL-3 [2]: 71%

C[C@@H]1C[C@H]2[C@@H]3CCC4=CC(=O)C=C[C@]4(C)[C@@]3(F)[C@@H](O)C[C@]2(C)[C@@]1(O)C(=O)CO [Dexamethasone, reference compound]
effect on PRL phosphatase activity (DiFMUP hydrolysis), in words ([2]; PRL-1, PRL-2, PRL-3 for research-grade inhibitors, PRL-3 for Dexamethasone): no effect on PRL-3 phosphatase activity

C[N+]1(C)CCC(=C(c2ccccc2)c2ccccc2)CC1 [Diphemanil Methylsulfate]
% Phosphatase Activity (compared to DMSO) PRL-2 [1]: 124%
% Phosphatase Activity (compared to DMSO) PRL-3 [2]: 91%

CN(CCOc1ccc(NS(C)(=O)=O)cc1)CCc1ccc(NS(C)(=O)=O)cc1 [Dofetilide]
% Phosphatase Activity (compared to DMSO) PRL-2 [1]: 88%
% Phosphatase Activity (compared to DMSO) PRL-3 [2]: 82%

CCN[C@H]1C[C@H](C)S(=O)(=O)c2sc(S(N)(=O)=O)cc21 [Dorzolamide HCl]
% Phosphatase Activity (compared to DMSO) PRL-2 [1]: 81%
% Phosphatase Activity (compared to DMSO) PRL-3 [2]: 87%

CCn1cc(C(=O)O)c(=O)c2cc(F)c(N3CCNCC3)nc21 [Enoxacin]
% Phosphatase Activity (compared to DMSO) PRL-2 [1]: 95%
% Phosphatase Activity (compared to DMSO) PRL-3 [2]: 98%

O=S(=O)([O-])CCCS(=O)(=O)[O-].[Na+].[Na+] [Eprodisate (disodium)]
% Phosphatase Activity (compared to DMSO) PRL-2 [1]: 126%
% Phosphatase Activity (compared to DMSO) PRL-3 [2]: 112%

OC(Cn1cncn1)(Cn1cncn1)c1ccc(F)cc1F [Fluconazole]
% Phosphatase Activity (compared to DMSO) PRL-2 [1]: 97%
% Phosphatase Activity (compared to DMSO) PRL-3 [2]: 76%

O=c1[nH]cc(F)c(=O)[nH]1 [Fluorouracil (5-Fluoracil, 5-FU)]
% Phosphatase Activity (compared to DMSO) PRL-2 [1]: 109%
% Phosphatase Activity (compared to DMSO) PRL-3 [2]: 75%

N[C@@H](CSCCCO)C(=O)O [Fudosteine]
% Phosphatase Activity (compared to DMSO) PRL-2 [1]: 75%
% Phosphatase Activity (compared to DMSO) PRL-3 [2]: 92%

Br.COc1ccc2c3c1O[C@H]1C[C@@H](O)C=C[C@@]31CCN(C)C2 [Galanthamine HBr]
% Phosphatase Activity (compared to DMSO) PRL-2 [1]: 85%
% Phosphatase Activity (compared to DMSO) PRL-3 [2]: 93%

CC1(C)O[C@@H]2C[C@H]3[C@@H]4CCC5=CC(=O)CC[C@]5(C)[C@@]4(F)[C@@H](O)C[C@]3(C)[C@]2(C(=O)CCl)O1 [Halcinonide]
% Phosphatase Activity (compared to DMSO) PRL-2 [1]: 105%
% Phosphatase Activity (compared to DMSO) PRL-3 [2]: 93%

Cl.Cl.OCCOCCN1CCN(C(c2ccccc2)c2ccc(Cl)cc2)CC1 (centres unmarked) [Hydroxyzine 2HCl]
% Phosphatase Activity (compared to DMSO) PRL-2 [1]: 103%
% Phosphatase Activity (compared to DMSO) PRL-3 [2]: 85%

COC1=C(OC)C(=O)C(CCCCCCCCCCO)=C(C)C1=O [Idebenone]
% Phosphatase Activity (compared to DMSO) PRL-2 [1]: 150%
% Phosphatase Activity (compared to DMSO) PRL-3 [2]: 101%

CCC(C)n1ncn(-c2ccc(N3CCN(c4ccc(OCC5COC(Cn6cncn6)(c6ccc(Cl)cc6Cl)O5)cc4)CC3)cc2)c1=O (centres unmarked) [Itraconazole]
% Phosphatase Activity (compared to DMSO) PRL-2 [1]: 93%
% Phosphatase Activity (compared to DMSO) PRL-3 [2]: 74%

CC[C@@H](C(N)=O)N1CCCC1=O [Levetiracetam]
% Phosphatase Activity (compared to DMSO) PRL-2 [1]: 90%
% Phosphatase Activity (compared to DMSO) PRL-3 [2]: 71%

CCN(CC)CC(=O)Nc1c(C)cccc1C [Lidocaine]
% Phosphatase Activity (compared to DMSO) PRL-2 [1]: 91%
% Phosphatase Activity (compared to DMSO) PRL-3 [2]: 63%

COC(=O)C1=C(C)NC(C)=C(C(=O)OCCN2CCN(C(c3ccccc3)c3ccccc3)CC2)C1c1cccc([N+](=O)[O-])c1 (centres unmarked) [Manidipine]
% Phosphatase Activity (compared to DMSO) PRL-2 [1]: 93%
% Phosphatase Activity (compared to DMSO) PRL-3 [2]: 77%

C#C[C@]1(O)CC[C@H]2[C@@H]3CCc4cc(OC)ccc4[C@H]3CC[C@@]21C [Mestranol]
% Phosphatase Activity (compared to DMSO) PRL-2 [1]: 99%
% Phosphatase Activity (compared to DMSO) PRL-3 [2]: 77%

O=C(NCCN1CCOCC1)c1ccc(Cl)cc1 [Moclobemide (Ro 111163)]
% Phosphatase Activity (compared to DMSO) PRL-2 [1]: 109%
% Phosphatase Activity (compared to DMSO) PRL-3 [2]: 83%

Aprotinin
% Phosphatase Activity (compared to DMSO) PRL-2 [1]: 90%
